Columns and labels:
[1] = 81.5 kPa, Liquid
[2] = xn = mol fraction of the nth substance listed; details: 81.5 kPa, Liquid

CC(C)O [propan-2-ol]
[1]
Details | mass density [kg/m3]
293.15 K | 785.1
303.15 K | 776.63
313.15 K | 767.84
323.15 K | 758.68

CC(C)O [propan-2-ol] + O
mass density [kg/m3], [2]
Details | 293.15 K | 303.15 K | 313.15 K | 323.15 K
x1 = 0.0399 | 979.61 | 976 | 971.52 | 966.2
x1 = 0.1197 | 948.88 | 941.64 | 934.18 | 926.48
x1 = 0.2017 | 916.63 | 908.64 | 900.42 | 891.98
x1 = 0.28 | 891.87 | 883.56 | 875.01 | 866.23
x1 = 0.359 | 871.15 | 862.65 | 853.89 | 844.85
x1 = 0.4384 | 854.11 | 845.46 | 836.52 | 827.31
x1 = 0.5204 | 839.36 | 830.58 | 821.54 | 812.2
x1 = 0.5995 | 827.56 | 818.72 | 809.6 | 800.16
x1 = 0.6801 | 817.14 | 808.26 | 799.08 | 789.6
x1 = 0.7552 | 808.56 | 799.67 | 790.48 | 780.98
x1 = 0.8403 | 799.95 | 791.1 | 781.97 | 772.47
x1 = 0.9225 | 792.03 | 783.34 | 774.33 | 764.97
x1 = 1 | 785.1 | 776.63 | 767.84 | 758.68

O [water] + CC(C)O
Details | mass density [kg/m3]
[2], 323.15 K, x2 = 0 | 988.03

O [water] + CCCO
Details | mass density [kg/m3]
[2], 323.15 K, x2 = 0 | 988.03

From the NIST ThermoML archive (doi:10.1021/je800158z)
